Source: patent publication US20100298141A1, “SUBSTITUTED PYRIDINE N-OXIDE HERBICIDES” (E. I. DU PONT DE NEMOURS AND COMPANY, priority 2007, published 2010)

What was measured:
Experiment in all cases: Test F preemergence test
Settings in all cases: scale 0 to 100
pitted morningglory = format: in vivo, Ipomoea lacunosa
Description: Seeds of plant species selected from bermudagrass (Cynodon dactylon), Surinam grass (Brachiaria decumbens), large crabgrass (Digitaria sanguinalis), green foxtail (Setaria viridis), goosegrass (Eleusine indica), johnsongrass (Sorghum halepense), kochia (Kochia scoparia), pitted morningglory (Ipomoea lacunosa), purple nutsedge (Cyperus rotundus), common ragweed (Ambrosia elation), mustard (Brassica nigra), guineagrass (Panicum maximum), […] (Paspalum dilatatum), barnyardgrass (Echinochloa crus-galli), southern sandbur (Cenchrus echinatus), common sowthistle (Sonchus oleraceous), prickly […] spinosa), Italian ryegrass (Lolium multiflorum), common purslane (Portulaca oleracea), broadleaf signalgrass (Brachiaria platyphylla), common groundsel (Senecio vulgaris), common chickweed (Stellaria media), Virginia dayflower (Commelina virginica), annual bluegrass (Poa annua), naked crabgrass (Digitaria nuda), […] cochinchinensis), quackgrass (Elytrigia repens), Canada horseweed (Conyza canadensis), field bindweed (Convolvulus arvensis), […] (Bidens bipinnata), common mallow (Malva sylvestris), Russian thistle (Salsola kali), and sugarcane (Saccharum officinarum) were planted and treated preemergence with test chemicals formulated in a non-phytotoxic solvent mixture which included a surfactant. At a different time, sugarcane was treated with postemergence applications of some of the test chemicals formulated in the same manner. Plants were approximately 3- to 4-leaf stage for the postemergence treatments. Treated plants and controls were maintained in a greenhouse for 14 to 21 days, after which time all species were compared to controls and visually evaluated. […] A dash (-) response means no test result.

common ragweed = format: in vivo, Ambrosia elation
Method in brief: (§1)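 Compound in a non-phytotoxic solvent blend with surfactant is applied preemergence to planted seeds or postemergence to sugarcane plants. Plants and controls stay in the greenhouse 14 to 21 days before visual comparison.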

Italian ryegrass = format: in vivo, Lolium multiflorum
Method in brief: as §1

Surinam grass = format: in vivo, Brachiaria decumbens
Method in brief: as §1

common groundsel = format: in vivo, Senecio vulgaris
Method in brief: as §1

common purslane = format: in vivo, Portulaca oleracea
Method in brief: as §1

kochia = format: in vivo, Kochia scoparia
Method in brief: as §1

prickly sida = format: in vivo, Sida spinosa
Method in brief: as §1

naked crabgrass = format: in vivo, Digitaria nuda
Method in brief: as §1

quackgrass = format: in vivo, Elytrigia repens
Method in brief: as §1

bermudagrass = format: in vivo, Cynodon dactylon
Method in brief: as §1

guineagrass = format: in vivo, Panicum maximum
Method in brief: as §1

southern sandbur = format: in vivo, Cenchrus echinatus
Method in brief: as §1

johnsongrass = format: in vivo, Sorghum halepense
Method in brief: as §1

large crabgrass = format: in vivo, Digitaria sanguinalis
Method in brief: as §1

purple nutsedge = format: in vivo, Cyperus rotundus
Method in brief: as §1

goosegrass = format: in vivo, Eleusine indica
Method in brief: as §1

Compound: CCn1nc(C(F)(F)F)c(C[S+]([O-])c2cc(C)cc[n+]2[O-])c1OCC(F)(F)F (racemic) [Compound 66]
- Plant response rating, Morningglory (pitted morningglory; 16 g ai/ha, preemergence): 0
- Morningglory plant response rating (pitted morningglory; 62 g ai/ha, Preemergence): 80
- Morningglory plant response rating (pitted morningglory; 125 g ai/ha, preemergence): 100
- Plant response rating, Morningglory (pitted morningglory; Preemergence, 31 g ai/ha): 65
- Plant response rating, Ragweed (common ragweed; 16 g ai/ha, preemergence): 0
- Ragweed plant response rating (common ragweed; 125 g ai/ha, preemergence): 80
- Plant response rating, Ragweed (common ragweed; Preemergence, 62 g ai/ha): 70
- Plant response rating, Ragweed (common ragweed; Preemergence, 31 g ai/ha): 70
- Plant response rating, Ryegrass, Italian (Italian ryegrass; 16 g ai/ha, preemergence): 0
- Ryegrass, Italian plant response rating (Italian ryegrass; 125 g ai/ha, preemergence): 70
- Plant response rating, Ryegrass, Italian (Italian ryegrass; Preemergence, 62 g ai/ha): 60
- Plant response rating, Ryegrass, Italian (Italian ryegrass; Preemergence, 31 g ai/ha): 50
- Plant response rating, Surinam Grass (Surinam grass; 16 g ai/ha, preemergence): 0
- Surinam Grass plant response rating (Surinam grass; 125 g ai/ha, preemergence): 100
- Plant response rating, Surinam Grass (Surinam grass; Preemergence, 62 g ai/ha): 98
- Plant response rating, Surinam Grass (Surinam grass; Preemergence, 31 g ai/ha): 90
- Groundsel plant response rating (common groundsel; 62 g ai/ha, Preemergence): 80
- Groundsel plant response rating (common groundsel; 125 g ai/ha, preemergence): 100
- Plant response rating, Groundsel (common groundsel; Preemergence, 31 g ai/ha): 20
- Plant response rating, Purslane (common purslane; 16 g ai/ha, preemergence): 0
- Purslane plant response rating (common purslane; 62 g ai/ha, Preemergence): 50
- Purslane plant response rating (common purslane; 125 g ai/ha, preemergence): 60
- Plant response rating, Purslane (common purslane; Preemergence, 31 g ai/ha): 0
- Plant response rating, Kochia (kochia; 16 g ai/ha, preemergence): 0
- Kochia plant response rating (kochia; 62 g ai/ha, Preemergence): 15
- Kochia plant response rating (kochia; 125 g ai/ha, preemergence): 90
- Plant response rating, Kochia (kochia; Preemergence, 31 g ai/ha): 0
- Plant response rating, Prickly Sida (prickly sida; 16 g ai/ha, preemergence): 20
- Prickly Sida plant response rating (prickly sida; 62 g ai/ha, Preemergence): 75
- Prickly Sida plant response rating (prickly sida; 125 g ai/ha, preemergence): 98
- Plant response rating, Prickly Sida (prickly sida; Preemergence, 31 g ai/ha): 20
- Plant response rating, Crabgrass, Naked (naked crabgrass; 16 g ai/ha, preemergence): 0
- Crabgrass, Naked plant response rating (naked crabgrass; 62 g ai/ha, Preemergence): 100
- Crabgrass, Naked plant response rating (naked crabgrass; 125 g ai/ha, preemergence): 100
- Plant response rating, Crabgrass, Naked (naked crabgrass; Preemergence, 31 g ai/ha): 25
- Plant response rating, Quackgrass (quackgrass; 16 g ai/ha, preemergence): 70
- Quackgrass plant response rating (quackgrass; 62 g ai/ha, Preemergence): 85
- Quackgrass plant response rating (quackgrass; 125 g ai/ha, preemergence): 100
- Plant response rating, Quackgrass (quackgrass; Preemergence, 31 g ai/ha): 75
- Plant response rating, Bermudagrass (bermudagrass; 16 g ai/ha, preemergence): 40
- Bermudagrass plant response rating (bermudagrass; 62 g ai/ha, Preemergence): 75
- Bermudagrass plant response rating (bermudagrass; 125 g ai/ha, preemergence): 98
- Plant response rating, Bermudagrass (bermudagrass; Preemergence, 31 g ai/ha): 60
- Plant response rating, Guineagrass (guineagrass; 16 g ai/ha, preemergence): 20
- Guineagrass plant response rating (guineagrass; 62 g ai/ha, Preemergence): 100
- Guineagrass plant response rating (guineagrass; 125 g ai/ha, preemergence): 100
- Plant response rating, Guineagrass (guineagrass; Preemergence, 31 g ai/ha): 80
- Plant response rating, Sandbur (southern sandbur; 16 g ai/ha, preemergence): 15
- Sandbur plant response rating (southern sandbur; 125 g ai/ha, preemergence): 100
- Plant response rating, Sandbur (southern sandbur; Preemergence, 62 g ai/ha): 100
- Plant response rating, Sandbur (southern sandbur; Preemergence, 31 g ai/ha): 70
- Plant response rating, Johnsongrass (johnsongrass; 16 g ai/ha, preemergence): 35
- Johnsongrass plant response rating (johnsongrass; 62 g ai/ha, Preemergence): 90
- Johnsongrass plant response rating (johnsongrass; 125 g ai/ha, preemergence): 100
- Plant response rating, Johnsongrass (johnsongrass; Preemergence, 31 g ai/ha): 65
- Plant response rating, Crabgrass, Large (large crabgrass; 16 g ai/ha, preemergence): 0
- Crabgrass, Large plant response rating (large crabgrass; 62 g ai/ha, Preemergence): 80
- Crabgrass, Large plant response rating (large crabgrass; 125 g ai/ha, preemergence): 95
- Plant response rating, Crabgrass, Large (large crabgrass; Preemergence, 31 g ai/ha): 70
- Plant response rating, Purple Nutsedge (purple nutsedge; 16 g ai/ha, preemergence): 25
- Purple Nutsedge plant response rating (purple nutsedge; 62 g ai/ha, Preemergence): 60
- Purple Nutsedge plant response rating (purple nutsedge; 125 g ai/ha, preemergence): 100
- Plant response rating, Purple Nutsedge (purple nutsedge; Preemergence, 31 g ai/ha): 40
- Plant response rating, Goosegrass (goosegrass; 16 g ai/ha, preemergence): 40
- Goosegrass plant response rating (goosegrass; 62 g ai/ha, Preemergence): 75
- Goosegrass plant response rating (goosegrass; 125 g ai/ha, preemergence): 100
- Plant response rating, Goosegrass (goosegrass; Preemergence, 31 g ai/ha): 60

Compound: Cn1nc(C(F)(F)F)c(C[S+]([O-])c2cccc[n+]2[O-])c1Cl (stereo not shown) [Compound 8]
- Morningglory plant response rating (pitted morningglory; 62 g ai/ha, Preemergence): 0
- Morningglory plant response rating (pitted morningglory; 125 g ai/ha, preemergence): 35
- Plant response rating, Morningglory (pitted morningglory; Preemergence, 16 g ai/ha): 0
- Plant response rating, Morningglory (pitted morningglory; Preemergence, 31 g ai/ha): 0
- Ragweed plant response rating (common ragweed; 62 g ai/ha, Preemergence): 35
- Ragweed plant response rating (common ragweed; 125 g ai/ha, preemergence): 80
- Plant response rating, Ragweed (common ragweed; Preemergence, 16 g ai/ha): 0
- Plant response rating, Ragweed (common ragweed; Preemergence, 31 g ai/ha): 35
- Ryegrass, Italian plant response rating (Italian ryegrass; 62 g ai/ha, Preemergence): 75
- Ryegrass, Italian plant response rating (Italian ryegrass; 125 g ai/ha, preemergence): 100
- Plant response rating, Ryegrass, Italian (Italian ryegrass; Preemergence, 16 g ai/ha): 0
- Plant response rating, Ryegrass, Italian (Italian ryegrass; Preemergence, 31 g ai/ha): 40
- Surinam Grass plant response rating (Surinam grass; 62 g ai/ha, Preemergence): 90
- Surinam Grass plant response rating (Surinam grass; 125 g ai/ha, preemergence): 100
- Plant response rating, Surinam Grass (Surinam grass; Preemergence, 31 g ai/ha): 70
- Groundsel plant response rating (common groundsel; 62 g ai/ha, Preemergence): 65
- Groundsel plant response rating (common groundsel; 125 g ai/ha, preemergence): 80
- Plant response rating, Groundsel (common groundsel; Preemergence, 16 g ai/ha): 0
- Plant response rating, Groundsel (common groundsel; Preemergence, 31 g ai/ha): 0
- Purslane plant response rating (common purslane; 62 g ai/ha, Preemergence): 15
- Purslane plant response rating (common purslane; 125 g ai/ha, preemergence): 20
- Plant response rating, Purslane (common purslane; Preemergence, 16 g ai/ha): 0
- Plant response rating, Purslane (common purslane; Preemergence, 31 g ai/ha): 0
- Kochia plant response rating (kochia; 62 g ai/ha, Preemergence): 0
- Kochia plant response rating (kochia; 125 g ai/ha, preemergence): 100
- Plant response rating, Kochia (kochia; Preemergence, 16 g ai/ha): 0
- Plant response rating, Kochia (kochia; Preemergence, 31 g ai/ha): 0
- Prickly Sida plant response rating (prickly sida; 62 g ai/ha, Preemergence): 70
- Prickly Sida plant response rating (prickly sida; 125 g ai/ha, preemergence): 90
- Plant response rating, Prickly Sida (prickly sida; Preemergence, 16 g ai/ha): 20
- Plant response rating, Prickly Sida (prickly sida; Preemergence, 31 g ai/ha): 20
- Crabgrass, Naked plant response rating (naked crabgrass; 62 g ai/ha, Preemergence): 90
- Crabgrass, Naked plant response rating (naked crabgrass; 125 g ai/ha, preemergence): 100
- Plant response rating, Crabgrass, Naked (naked crabgrass; Preemergence, 16 g ai/ha): 60
- Plant response rating, Crabgrass, Naked (naked crabgrass; Preemergence, 31 g ai/ha): 75
- Quackgrass plant response rating (quackgrass; 62 g ai/ha, Preemergence): 40
- Quackgrass plant response rating (quackgrass; 125 g ai/ha, preemergence): 70
- Plant response rating, Quackgrass (quackgrass; Preemergence, 16 g ai/ha): 0
- Plant response rating, Quackgrass (quackgrass; Preemergence, 31 g ai/ha): 0
- Bermudagrass plant response rating (bermudagrass; 62 g ai/ha, Preemergence): 75
- Bermudagrass plant response rating (bermudagrass; 125 g ai/ha, preemergence): 90
- Plant response rating, Bermudagrass (bermudagrass; Preemergence, 16 g ai/ha): 0
- Plant response rating, Bermudagrass (bermudagrass; Preemergence, 31 g ai/ha): 15
- Guineagrass plant response rating (guineagrass; 62 g ai/ha, Preemergence): 98
- Guineagrass plant response rating (guineagrass; 125 g ai/ha, preemergence): 100
- Plant response rating, Guineagrass (guineagrass; Preemergence, 16 g ai/ha): 35
- Plant response rating, Guineagrass (guineagrass; Preemergence, 31 g ai/ha): 60
- Sandbur plant response rating (southern sandbur; 62 g ai/ha, Preemergence): 80
- Sandbur plant response rating (southern sandbur; 125 g ai/ha, preemergence): 100
- Plant response rating, Sandbur (southern sandbur; Preemergence, 31 g ai/ha): 10
- Johnsongrass plant response rating (johnsongrass; 62 g ai/ha, Preemergence): 95
- Johnsongrass plant response rating (johnsongrass; 125 g ai/ha, preemergence): 95
- Plant response rating, Johnsongrass (johnsongrass; Preemergence, 16 g ai/ha): 0
- Plant response rating, Johnsongrass (johnsongrass; Preemergence, 31 g ai/ha): 75
- Crabgrass, Large plant response rating (large crabgrass; 62 g ai/ha, Preemergence): 90
- Crabgrass, Large plant response rating (large crabgrass; 125 g ai/ha, preemergence): 98
- Plant response rating, Crabgrass, Large (large crabgrass; Preemergence, 16 g ai/ha): 0
- Plant response rating, Crabgrass, Large (large crabgrass; Preemergence, 31 g ai/ha): 65
- Purple Nutsedge plant response rating (purple nutsedge; 62 g ai/ha, Preemergence): 50
- Purple Nutsedge plant response rating (purple nutsedge; 125 g ai/ha, preemergence): 65
- Plant response rating, Purple Nutsedge (purple nutsedge; Preemergence, 16 g ai/ha): 0
- Plant response rating, Purple Nutsedge (purple nutsedge; Preemergence, 31 g ai/ha): 0
- Goosegrass plant response rating (goosegrass; 62 g ai/ha, Preemergence): 80
- Goosegrass plant response rating (goosegrass; 125 g ai/ha, preemergence): 100
- Plant response rating, Goosegrass (goosegrass; Preemergence, 16 g ai/ha): 0
- Plant response rating, Goosegrass (goosegrass; Preemergence, 31 g ai/ha): 70
